The values that follow come from patent publication US6849632B2, “Heteroaryl alkyl piperazine derivatives” (CV Therapeutics, Inc., priority 2000, dated 2005).

“And” between values parts separate entries of the source, which are not always exact repeats. Identical values can stand only once.

In the first assay the test system is mitochondrial fatty acid oxidation using palmitoyl CoA as substrate. The assay is described as follows: Palmitoyl CoA oxidation in isolated rat heart mitochondria. Conditions: 50 μm compound, 15 min at 30° C. The class given is biochemical. Here is the method:
Rat heart mitochondria were isolated by the method of Nedergard and Cannon (Methods in Enzymol. 55, 3, 1979). Palmitoyl CoA oxidation—The Palmityl CoA oxidation was carried out in a total volume of 100 micro liters containing the following agents: 110 mM KCl, 33 mM Tris buffer at pH 8, 2 mM KPi, 2 mM MgCl2, 0.1 mM EDTA, 14.7 microM defatted BSA, 0.5 mM malic acid, 13 mM carnitine, 1 mM ADP, 52 micrograms of mitochondrial protein, and 16 microM 1-C14 palmitoyl CoA (Sp. Activity 60 mCi/mmole; 20 microCi/ml, using 5 microliters per assay). The compounds of this invention were added in a DMSO solution at the following concentrations: 100 microM, and 50 microM. In each assay, a DMSO control was used. After 15 min at 30° C., the enzymatic reaction was centrifuged (20,000 g for 1 min), and 70 microliters of the supernatant was added to an activated reverse phase silicic acid column (approximately 0.5 ml of silicic acid). The column was eluted with 2 ml of water, and 0.5 ml of the eluent was used for scintillation counting to determine the amount of C^14 trapped as C^14 bicarbonate ion.
Regarding `Cc1cccc(C)c1NC(=O)CN1CCN(CC(O)COc2ccc3oc(-c4cccc(C(F)(F)F)c4)nc3c2)CC1` (stereo not shown) [Compound 7, N-(2,6-dimethyl-phenyl)-2-(4-{2-hydroxy-3-[2-(3-trifluoromethylphenyl)benzoxazol-5-yloxy]-propyl}-piperazin-1-yl)acetamide], the “Inhibition of mitochondrial fatty acid oxidation using palmitoyl CoA as substrate - % of Control, 50 μm (%)” value (“Inhibition … 50 μm (%)” below) stood at 77%. On the same count and under the same terms, for `Cc1cccc(C)c1NC(=O)CN1CCN(CC(O)COc2ccc3oc(-c4ccccc4)nc3c2)CC1` (stereo not shown) [Compound 60, N-(2,6-dimethylphenyl)-2-{4-[2-hydroxy-3-(2-phenyl-benzoxazol-5-yloxy)-propyl)-piperazin-1-yl}acetamide] the value was 61%. With `Cc1cccc(C)c1NC(=O)CN1CCN(CC(O)COc2cccc3nc(-c4ccccc4)sc23)CC1` (stereo not shown) [Compound 62], the “Inhibition … 50 μm (%)” value amounted to 62%. Turning to `Cc1cccc(C)c1NC(=O)CN1CCN(CC(O)COc2ccc3oc(-c4ccc(C(F)(F)F)cc4)nc3c2)CC1` (stereo not shown) [Compound 68, N-(2,6-dimethylphenyl)-2-(4-{2-hydroxy-3-[2-(4-trifluoromethyl-phenyl)benzoxazol-5-yloxy]-propyl}-piperazin-1-yl)acetamide], the “Inhibition … 50 μm (%)” value was 68%.

The same assay, now with this note: 100 μm compound, 15 min at 30° C.
For `Cc1cccc(C)c1NC(=O)CN1CCN(CC(O)CNc2nc3ccccc3s2)CC1` (stereo not shown) [Compound 39, 2-{4-[3-(benzothiazol-2-ylamino)-2-hydroxypropyl]piperazinyl}-N-(2,6-dimethylphenyl)acetamide], the “Inhibition of mitochondrial fatty acid oxidation using palmitoyl CoA as substrate - % of Control, 100 μm (%)” value (“Inhibition … 100 μm (%)” below) was 27%. Turning to `Cc1nc2ccc(OCC(O)CN3CCN(CC(=O)Nc4c(C)cccc4C)CC3)cc2s1` (stereo not shown) [Compound 49, N-(2,6-dimethylphenyl)-2-{4-[2-hydroxy-3-(2-methyl-benzothiazol-6-yloxy)-propyl]-piperazin-1-yl}aceamide], the “Inhibition … 100 μm (%)” value was found to be 3%. On to `Cc1nc2cc(OCC(O)CN3CCN(CC(=O)Nc4ccc(O)cc4)CC3)ccc2s1` (stereo not shown) [Compound 54, 2-{4-[2-hydroxy-3-(2-methyl-benzothiazol-5-yloxy)-propyl]-piperazin-1-yl}-N-(4-hydroxy-phenyl)acetamide], for which the “Inhibition … 100 μm (%)” value was determined as 81%. Same read-out and setting: for `Cc1nc2cc(OCC(O)CN3CCN(CC(=O)Nc4c(C)cccc4C)C(=O)C3)ccc2s1` (stereo not shown) [Compound 64, N-(2,6-dimethylphenyl)-2-{4-[2-hydroxy-3-(2-methyl-benzothiazol-5-yloxy)-propyl]-2-oxo-piperazin-1-yl}acetamide] the value was 41%; for `Cc1cccc(C)c1NC(=O)CN1CCN(CC(O)COc2cccnc2)CC1` (stereo not shown) [Compound 72, N-(2,6-dimethylphenyl)-2-{4-[2-hydroxy-3-(pyridin-3-yloxy)-propyl]-piperazin-1-yl}acetamide], 8%. Still for that read-out and setting: for `Cc1cccc(C)c1NC(=O)CN1CCN(CC(O)CNc2nc3ccccc3o2)CC1` (stereo not shown) [Compound 82, 2-{4-[3-(benzoxazol-2-ylamino)-2-hydroxypropyl]piperazinyl}-N-(2,6-dimethylphenyl)acetamide] the value was 22%.

The same assay, now with this note: Table 1, read-out: IC50 (μm), inhibition of mitochondrial fatty acid oxidation using palmitoyl CoA as substrate.
By IC50 is commonly meant the concentration needed to halve the response being measured. `Cc1nc2cc(OCC(O)CN3CCN(CC(=O)Nc4ccc(O)cc4)CC3)ccc2s1` (stereo not shown) [Compound 54, 2-{4-[2-hydroxy-3-(2-methyl-benzothiazol-5-yloxy)-propyl]-piperazin-1-yl}-N-(4-hydroxy-phenyl)acetamide]: the half-inhibitory concentration (IC50) was ~8 µM.

Staying with this assay, now noted: Table IA, read-out: Effect on Palmitoyl CoA Oxidation (IC50).
On to “2-(4-{(2S)-3-[2-(4-chlorophenyl)benzoxazol-5-yloxy]-2-hydroxypropyl}piperazinyl)-N-[2-(hydroxymethyl)-6-methylphenyl]acetamide”, for which the IC50 was 12 µM and 20 µM. Turning to “2-(4-{(2S)-3-[2-(4-chlorophenyl)benzoxazol-5-yloxy]-2-hydroxypropyl}piperazinyl)-N-[4-(trifluoromethyl)phenyl]acetamide”, the 50% inhibitory concentration (IC50) is 12.9 µM. In the case of “2-((3S)-4-{(2S)-3-[2-(2-chlorophenyl)benzoxazol-5-yloxy]-2-hydroxy-propyl}-3-methylpiperazinyl)-N-(2,6-dimethylphenyl)acetamide”, the IC50 was 19 µM.

On to “2-((3S)-4-{(2S)-3-[2-(3-fluorophenyl)benzoxazol-5-yloxy]-2-hydroxy-propyl}-3-methylpiperazinyl)-N-(2,6-dimethylphenyl)acetamide”, for which the IC50 was determined as 16 µM. Still for that read-out and setting: with “2-{4-[(2R)-2-hydroxy-3-(2-methylbenzothiazol-5-yloxy)propyl]-3,3-dimethylpiperazinyl}-N-(2,6-dimethylphenyl)acetamide” the figure was 0.45 µM; with “2-{4-[(2S)-2-hydroxy-3-(2-methylbenzothiazol-5-yloxy)propyl]piperazinyl}-N-(3-phenoxyphenyl)acetamide”, 0.39 µM.

As to “2-{4-[(2S)-2-hydroxy-3-(2-methylbenzothiazol-5-yloxy)propyl]piperazinyl}-N-(4-methylphenyl)acetamide”, the IC50 stood at 1.7 µM. Still for that read-out and setting: with “2-{4-[(2S)-2-hydroxy-3-(2-methylbenzothiazol-5-yloxy)propyl]piperazinyl}-N-(4-phenylphenyl)acetamide” the figure was 0.46 µM; with “2-{4-[(2S)-2-hydroxy-3-(2-methylbenzothiazol-5-yloxy)propyl]piperazinyl}-N-[4-(4-chlorophenoxy)phenyl]acetamide”, 2 µM; with “2-{4-[(2S)-2-hydroxy-3-(2-methylbenzothiazol-5-yloxy)propyl]piperazinyl}-N-[4-(trifluoromethyl)phenyl]acetamide”, 7.6 µM. With “2-{4-[(2S)-2-hydroxy-3-(2-methylbenzothiazol--yloxy)propyl]piperazinyl}-N-(4-phenoxyphenyl)acetamide”, the half-maximal inhibitory concentration (IC50) was found to be 0.33 µM. “2-{4-[(2S)-2-hydroxy-3-(2-phenylbenzoxazol-5-yloxy)propyl]piperazinyl}-N-(3-phenylphenyl)acetamide”: the half-maximal inhibitory concentration (IC50) was determined as 26 µM. With “2-{4-[(2S)-2-hydroxy-3-(2-phenylbenzoxazol-5-yloxy)propyl]piperazinyl}-N-(4-phenoxyphenyl)acetamide”, the IC50 worked out at 11.3 µM. Same read-out and setting: for “2-{4-[(2S)-3-(2-cyclohexylbenzothiazol-5-yloxy)-2-hydroxypropyl]piperazinyl}-N-(2,6-dimethylphenyl)acetamide” the value was 6.5 µM; for “2-{(3S)-4-[(2S)-2-hydroxy-3-(2-methylbenzothiazol-5-yloxy)propyl]-3-methylpiperazinyl}-N-(4-cyanophenyl)acetamide”, 0.41 µM. With `Cc1cccc(C)c1NC(=O)CN1CCN(C[C@H](O)COc2ccc3oc(-c4cccc(C(F)(F)F)c4)nc3c2)CC1` [2-[4-((2S)-2-hydroxy-3-{2-[3-(trifluoromethyl)phenyl]benzoxazol-5-yloxy}propyl)piperazinyl]-N-(2,6-dimethylphenyl)acetamide], the 50% inhibitory concentration (IC50) turned out to be 13 µM. The same measure, in the same setting: for `Cc1nc2cc(OC[C@H](O)CN3CCN(CC(=O)Nc4c(C)cccc4C)C[C@@H]3C)ccc2s1` [2-{4-[(2R)-2-hydroxy-3-(2-methylbenzothiazol-5-yloxy)propyl](3S)-3-methylpiperazinyl}-N-(2,6-dimethylphenyl)acetamide] the value was 5 µM. As for `Cc1nc2cc(OC[C@H](O)CN3CCN(CC(=O)Nc4c(C)cccc4C)CC3)ccc2s1` [2-{4-[(2R)-2-hydroxy-3-(2-methylbenzothiazol-5-yloxy)propyl]piperazinyl}-N-(2,6-dimethylphenyl)acetamide], the IC50 amounted to 4 µM.

As to `Cc1nc2cc(OC[C@@H](O)CN3CCN(CC(=O)Nc4c(C)cccc4C)CC3)ccc2s1` [2-{4-[(2S)-2-hydroxy-3-(2-methylbenzothiazol-5-yloxy)propyl]piperazinyl}-N-(2,6-dimethylphenyl)acetamide], the 50% inhibitory concentration (IC50) was found to be 8 µM.

In the case of `Cc1nc2cc(OC[C@@H](O)CN3CCN(CC(=O)Nc4cccc(-c5ccccc5)c4)CC3)ccc2s1` [2-{4-[(2S)-2-hydroxy-3-(2-methylbenzothiazol-5-yloxy)propyl]piperazinyl}-N-(3-phenylphenyl)acetamide], the IC50 came to 0.18 µM. Regarding `Cc1nc2cc(OC[C@H](O)CN3CCN(CC(=O)Nc4c(C)cccc4C)C[C@H]3C)ccc2s1` [2-{(3R)-4-[(2R)-2-hydroxy-3-(2-methylbenzothiazol-5-yloxy)propyl]-3-methylpiperazinyl}-N-(2,6-dimethylphenyl)acetamide], the IC50 stood at 10 µM.

On to `Cc1nc2cc(OC[C@@H](O)CN3CCN(CC(=O)Nc4c(C)cccc4C)C[C@H]3C)ccc2s1` [2-{(3R)-4-[(2S)-2-hydroxy-3-(2-methylbenzothiazol-5-yloxy)propyl]-3-methylpiperazinyl}-N-(2,6-dimethylphenyl)acetamide], for which the 50% inhibitory concentration (IC50) was determined as 2 µM.

Consider `Cc1nc2cc(OC[C@@H](O)CN3CCN(CC(=O)Nc4c(C)cccc4C)C[C@@H]3C)ccc2s1` [2-{(3S)-4-[(2S)-2-hydroxy-3-(2-methylbenzothiazol-5-yloxy)propyl]-3-methylpiperazinyl}-N-(2,6-dimethylphenyl)acetamide], for which the half-maximal inhibitory concentration (IC50) worked out at 0.2 µM.
